Patent US20190208800A1, “L-GLUTAMINE IN SWINE DIETS” (The United States of America, as represented by the …, priority 2018, published 2019)
Marks after values point to notes of the source that are not given here.

How the values were obtained:
enteric disease = assay: Example 2: percentage of pigs treated for enteric disease (FIG. 1); format: in vivo; conditions: 0.20% L-glutamine diet; Period 1 (d 0-14) and Period 2 (d 15-34) post-weaning and transport
Excerpt: Period 1 is 0-14 days post-weaning and transport and Period 2 is 15-34 days post-weaning and transport. Error bars represent ±1 standard error of the mean (SEM). Letters (a, b) indicate statistically significant differences (P≤0.05) between dietary treatments and symbols (*, #) indicate statistically significant differences (P≤0.05) between periods. In a larger example, three groups of post-weaning and post-transport pigs (each group n=160, total of 480 pigs, 50% male and 50% female) were fed on different diets to assess the effects of L-glutamine as a supplement in the diet in a production environment. The diets consisted primarily of corn and soybean meal as in Example 1. One group (Group A) was fed a standard swine feed in two phases containing a standard antibiotic supplement (400 g chlortetracycline and 35 g tiamulin/ton of feed), another group (GLN) was fed a standard swine feed in two phases containing 0.20% L-glutamine, and a third group (NA) was given a standard swine diet in two phases containing no antibiotics or immunomodulators. Otherwise, the diets for groups A, GLN, and NA were the same. […] Data were analyzed on a per pen basis and the assumptions of normality of error, homogeneity of variance, and linearity were confirmed post-hoc.

[1] = Example 2: nursery growth performance (d 0 to d 34 post-weaning) in a production environment; format: in vivo, pigs
Excerpt: (§1) In a larger example, three groups of post-weaning and post-transport pigs (each group n=160, total of 480 pigs, 50% male and 50% female) were fed on different diets to assess the effects of L-glutamine as a supplement in the diet in a production environment. The diets consisted primarily of corn and soybean meal as in Example 1. One group (Group A) was fed a standard swine feed in two phases containing a standard antibiotic supplement (400 g chlortetracycline and 35 g tiamulin/ton of feed), another group (GLN) was fed a standard swine feed in two phases containing 0.20% L-glutamine, and a third group (NA) was given a standard swine diet in two phases containing no antibiotics or immunomodulators. Otherwise, the diets for groups A, GLN, and NA were the same. The disparate diets were given to the different groups for 14 days post-weaning and transport, following which all three groups were on a common diet for the remainder of the trial. This experiment was conducted from Jul. 28, 2016 to Sep. 21, 2017. The pigs were followed all the way through market (i.e., day 125 post-weaning, being about 6 months of age).

[2] = system: tumor necrosis factor alpha (TNFα); assay: Example 3: tumor necrosis factor alpha in pigs' blood (FIG. 2); format: in vivo; conditions: blood samples; diets for 14 days after weaning and 12 h transport; vs no antibiotics
Experimental: Error bars represent ±1 standard error of the mean (SEM). Letters (a, b) indicate statistically significant differences (P≤0.05) between dietary treatments. In a similar experiment to the one above in Example 2, an L-glutamine-containing diet was evaluated for pigs to determine how it affected their general health and productivity. The experiment was conducted under commercial production conditions using a total of 480 mixed-sex (50% male and 50% female) pigs. Pigs were weaned and then transported for 12 hours to the nursery facility. Once pigs arrived at the nursery facility they were provided 1 of 3 separate diets, those being no antibiotics or L-glutamine (NA); 0.20% L-glutamine (GLN); or dietary antibiotics (A) for 14 days. After the 14-day period all pigs were provided the same antibiotic-free diets until they reached market weight. Blood and intestinal samples were collected from pigs to determine whole body immune function and intestinal integrity. […] Specifically, blood samples from the pigs were tested for tumor necrosis factor alpha (TNFα), a pro-inflammatory cytokine, elevated levels of which can be indicative of systemic inflammation and immune system activation which can be detrimental to the health and productivity of pigs. A reduction in circulating TNFα would be indicative of a decreased whole body inflammatory response in pigs. […]

[3] = Example 2: grow-finish growth performance (d 0 to d 125) until market; format: in vivo, pigs
Excerpt: as §1, with “age).[…]” for “age).”

[4] = Example 1: small-scale simulated transport of post-weaning pigs, 14-day diets; format: in vivo; conditions: 0.20% L-glutamine diet, 14 days post-weaning and simulated transport
Excerpt: In a small-scale example, three groups of post-weaning pigs were subjected to a simulated transport experience immediately post-weaning and then provided different diets to assess the effects of L-glutamine as a supplement in the diet. The details of the procedure are given in full in “Evaluating the behavior, growth performance, immune parameters, and intestinal morphology of weaned piglets after simulated transport and heat stress when antibiotics are eliminated from the diet or replaced with L-glutamine” by Johnson, J. S. and Lay Jr., D. C. in the Journal of Animal Science (2017, 95, 91-102), which is incorporated herein in its entirety by reference. In this experiment, the piglets were fed on disparate feeds for 14 days post-weaning and simulated transport, and then euthanized by CO2 exposure and exsanguination.

intestines = assay: Example 3: ratio of villus height to crypt depth in the intestines (FIG. 3); format: in vivo, pigs; conditions: intestinal samples; diets for 14 days after weaning and 12 h transport; compared to NA
Experimental: Error bars represent ±1 standard error of the mean (SEM). Letters (x, y) indicate statistical tendencies (0.05<P≤0.10) between dietary treatments. In a similar experiment to the one above in Example 2, an L-glutamine-containing diet was evaluated for pigs to determine how it affected their general health and productivity. The experiment was conducted under commercial production conditions using a total of 480 mixed-sex (50% male and 50% female) pigs. Pigs were weaned and then transported for 12 hours to the nursery facility. Once pigs arrived at the nursery facility they were provided 1 of 3 separate diets, those being no antibiotics or L-glutamine (NA); 0.20% L-glutamine (GLN); or dietary antibiotics (A) for 14 days. After the 14-day period all pigs were provided the same antibiotic-free diets until they reached market weight. Blood and intestinal samples were collected from pigs to determine whole body immune function and intestinal integrity. […] In particular, intestinal samples from pigs were analyzed to determine the ratio of villus height to crypt depth in the intestines. Villus height to crypt depth ratio is a morphological measure of intestinal health and a greater ratio indicates an improvement in intestinal health. […] Improved intestinal health is essential for nutrient absorption and preventing pathogens from entering the body. […]

[5] = d 0 to 14 post-weaning, diet treatment period
[6] = d 0 to 34 post-weaning, overall nursery
[7] = d 15 to 34 post-weaning, common diet period

SMILES: NC(=O)CC[C@H](N)C(=O)O [GLN, L-glutamine]
- requirement for injectable therapeutic antibiotics for enteric disease (enteric disease): the same requirement for injectable therapeutic antibiotics for enteric disease as the piglets fed the antibiotics
- overall nursery phase performance ([1]; d 0-34 post-weaning, vs antibiotic pigs): performed similarly to the antibiotic pigs
- Average daily feed intake [1, 5]: 272.06^a g
- Average daily gain [1, 5]: 210.78^a g
- Feed efficiency, gain: feed [1, 5]: 0.79^ab
- Average daily feed intake [1, 6]: 517.08^xy g
- Average daily gain [1, 6]: 352.73^ab g
- Feed efficiency, gain: feed [1, 6]: 0.71^ab
- d 14 body weight ([1]; d 14 post-weaning): 8.50^a kg
- Average daily feed intake [1, 7]: 680.43 g
- Average daily gain [1, 7]: 447.36 g
- Feed efficiency, gain: feed [1, 7]: 0.66
- d 34 body weight ([1]; d 34 post-weaning): 17.49^ab kg
- feed intake, average daily gain, and final body weight compared to the non-antibiotic group ([1]; diet treatment period, d 0-14 post-weaning): significantly higher
- circulating TNFα [2]: reduced at a similar level
- growth performance of piglets through the end of the nursery phase ([3]; body weight at start of grow-finish phase vs no antibiotic pigs): effective in improving the growth performance of piglets through the end of the nursery phase
- Feed efficiency, gain: feed ([3]; d 0 to 62 of grow-finish phase, common diet): 0.46
- Feed efficiency, gain: feed ([3]; d 0 to 125 of grow-finish phase): 0.38
- d 62 body weight ([3]; d 62 of grow-finish phase): 65.02 kg
- Feed efficiency, gain: feed ([3]; d 62 to 125 of grow-finish phase, common diet): 0.31
- Final body weight ([3]; d 125, market): 121.73 kg
- Initial body weight ([3]; start of grow-finish phase (d 0), diets given 14 days post-weaning, then common diet): 17.49^a kg
- effectiveness in other parameters ([4]; vs antibiotics): approximately as effective as the antibiotics
- productivity ([4]; vs non-antibiotic and antibiotic group): better productivity compared to the non-antibiotic and antibiotic group
- villus height to crypt depth ratio (intestines): greater
